Data taken from ChEMBL document CHEMBL3297644, “Discovery of a 4-aryloxy-1H-pyrrolo[3,2-c]pyridine and a 1-aryloxyisoquinoline series of TRPA1 antagonists” (Bioorg Med Chem Lett, 2014).
Values after ≈ are worked out from the molar mass of the structure shown. One block for each molecule: values may come before it.

Assays:
[1] = target: Transient receptor potential cation channel subfamily A member 1 (Homo sapiens, UniProt O75762); assay: Antagonist activity at human TRPA1 expressed in HEK293-TREx cells assessed as intracellular level after 48 of 72 hrs by Fluo-4 NW staining-based fluorescence analysis; type: cell-based
[2] = target: Transient receptor potential cation channel subfamily A member 1 (Rattus norvegicus, UniProt Q6RI86); assay: Antagonist activity at rat TRPA1 expressed in HEK293-TREx cells assessed as intracellular level after 48 of 72 hrs by Fluo-4 NW staining-based fluorescence analysis; type: cell-based
[3] = target: Transient receptor potential cation channel subfamily V member 1 (Homo sapiens, UniProt Q8NER1); assay: Inhibition of human TRPV1
[4] = Thermodynamic solubility of the compound in buffer at pH 7.4 by HPLC/UV detection; type: physicochemical; details: read-out: Therm_solubility
[5] = Chemical stability in buffer solution assessed as compound remaining at pH 1 at 70 degC after 24 hrs by HPLC/UV detection; type: physicochemical; details: read-out: Stability
[6] = Chemical stability in buffer solution assessed as compound remaining at pH 7 at 70 degC after 24 hrs by HPLC/UV detection; type: physicochemical; details: read-out: Stability
[7] = Chemical stability in buffer solution assessed as compound remaining at pH 14 at 70 degC after 24 hrs by HPLC/UV detection; type: physicochemical; details: read-out: Stability
[8] = Intrinsic clearance in human liver microsomes at 1 uM in presence of NADPH; type: ADME; details: read-out: CLH
[9] = Apparent permeability across apical to basolateral side in human Caco2 cells at 10 uM at pH 7.4 by Transwell assay; type: ADME, cell-based; details: Caco-2, pH 7.4
[10] = target: T1, Cytochrome P450 1A2 (Homo sapiens, UniProt P05177); assay: Inhibition of CYP1A2 in human liver microsomes by LC-MS/MS/competitive screening assay; type: ADME
T1 sequence (P05177 whole entry): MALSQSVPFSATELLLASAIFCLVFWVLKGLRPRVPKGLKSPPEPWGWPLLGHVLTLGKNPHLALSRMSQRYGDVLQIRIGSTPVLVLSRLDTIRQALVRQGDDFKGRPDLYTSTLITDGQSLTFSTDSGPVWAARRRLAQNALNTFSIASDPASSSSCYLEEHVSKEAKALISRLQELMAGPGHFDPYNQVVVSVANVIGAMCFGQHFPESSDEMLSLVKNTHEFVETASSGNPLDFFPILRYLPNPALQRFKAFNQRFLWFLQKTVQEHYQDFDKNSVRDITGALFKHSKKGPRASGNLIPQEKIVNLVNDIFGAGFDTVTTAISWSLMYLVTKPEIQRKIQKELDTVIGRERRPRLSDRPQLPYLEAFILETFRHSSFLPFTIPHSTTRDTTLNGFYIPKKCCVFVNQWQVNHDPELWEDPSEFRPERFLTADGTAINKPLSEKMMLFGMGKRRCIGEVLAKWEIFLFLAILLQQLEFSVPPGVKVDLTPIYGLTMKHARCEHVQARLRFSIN

[11] = target: Cytochrome P450 2C9 (Homo sapiens, UniProt P11712); assay: Inhibition of CYP2C9 in human liver microsomes by LC-MS/MS/competitive screening assay; type: ADME
[12] = target: Cytochrome P450 2C19 (Homo sapiens, UniProt P33261); assay: Inhibition of CYP2C19 in human liver microsomes by LC-MS/MS/competitive screening assay; type: ADME
[13] = target: Cytochrome P450 2D6 (Homo sapiens, UniProt P10635); assay: Inhibition of CYP2D6 in human liver microsomes by LC-MS/MS/competitive screening assay; type: ADME
[14] = target: Cytochrome P450 3A4 (Homo sapiens, UniProt P08684); assay: Inhibition of CYP3A4 in human liver microsomes by LC-MS/MS/competitive screening assay; type: ADME
[15] = target: T1, Cytochrome P450 1A2; assay: Time dependent inhibition of CYP1A2 in human liver microsomes assessed as shift at 10 uM; type: ADME; details: pooled result: one value given for 4 cell lines, strains, targets or settings

Sequence of Transient receptor potential cation channel subfamily A member 1 (Rattus norvegicus, UniProt Q6RI86) (Q6RI86 whole entry): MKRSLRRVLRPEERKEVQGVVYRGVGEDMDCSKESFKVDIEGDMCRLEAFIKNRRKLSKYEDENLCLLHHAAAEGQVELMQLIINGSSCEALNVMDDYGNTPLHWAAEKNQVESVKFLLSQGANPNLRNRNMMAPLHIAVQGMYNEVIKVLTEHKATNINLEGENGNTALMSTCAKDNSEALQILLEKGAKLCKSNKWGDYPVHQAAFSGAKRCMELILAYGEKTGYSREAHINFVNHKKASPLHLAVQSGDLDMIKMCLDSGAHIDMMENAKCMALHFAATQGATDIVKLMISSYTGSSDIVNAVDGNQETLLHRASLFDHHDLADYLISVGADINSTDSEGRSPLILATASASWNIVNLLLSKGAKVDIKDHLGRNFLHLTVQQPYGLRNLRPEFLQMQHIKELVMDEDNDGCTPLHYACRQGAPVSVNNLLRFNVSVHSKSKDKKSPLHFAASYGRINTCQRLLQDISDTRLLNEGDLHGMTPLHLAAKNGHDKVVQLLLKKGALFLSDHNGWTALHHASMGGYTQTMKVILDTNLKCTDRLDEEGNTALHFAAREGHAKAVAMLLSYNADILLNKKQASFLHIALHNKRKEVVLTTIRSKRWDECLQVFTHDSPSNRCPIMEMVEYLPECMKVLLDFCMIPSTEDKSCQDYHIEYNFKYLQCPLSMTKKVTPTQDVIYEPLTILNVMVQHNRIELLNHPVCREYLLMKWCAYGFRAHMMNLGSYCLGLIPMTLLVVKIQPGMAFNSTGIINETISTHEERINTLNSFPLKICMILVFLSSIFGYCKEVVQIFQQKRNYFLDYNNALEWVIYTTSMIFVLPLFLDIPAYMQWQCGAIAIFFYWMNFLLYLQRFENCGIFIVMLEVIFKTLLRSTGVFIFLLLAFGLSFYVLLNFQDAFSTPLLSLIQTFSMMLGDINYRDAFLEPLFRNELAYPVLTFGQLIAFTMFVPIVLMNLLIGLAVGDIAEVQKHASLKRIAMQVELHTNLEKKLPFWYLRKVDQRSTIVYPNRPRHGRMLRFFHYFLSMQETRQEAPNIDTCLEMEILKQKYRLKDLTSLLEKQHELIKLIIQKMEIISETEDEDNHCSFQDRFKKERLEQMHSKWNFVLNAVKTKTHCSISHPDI
Sequence of Cytochrome P450 2C9 (P11712 whole entry): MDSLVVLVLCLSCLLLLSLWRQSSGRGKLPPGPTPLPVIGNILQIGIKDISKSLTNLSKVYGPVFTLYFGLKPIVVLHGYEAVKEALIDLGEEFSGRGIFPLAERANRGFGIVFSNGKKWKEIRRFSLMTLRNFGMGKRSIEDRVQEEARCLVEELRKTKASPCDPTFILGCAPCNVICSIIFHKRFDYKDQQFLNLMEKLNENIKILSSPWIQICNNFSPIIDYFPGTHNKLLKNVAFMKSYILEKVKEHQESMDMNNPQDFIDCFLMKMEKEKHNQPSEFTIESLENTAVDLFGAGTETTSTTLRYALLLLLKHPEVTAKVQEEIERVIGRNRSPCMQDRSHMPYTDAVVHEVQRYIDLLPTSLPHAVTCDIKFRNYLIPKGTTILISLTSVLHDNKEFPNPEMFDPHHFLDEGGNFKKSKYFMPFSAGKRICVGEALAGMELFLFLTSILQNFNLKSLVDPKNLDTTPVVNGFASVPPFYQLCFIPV
Sequence of Cytochrome P450 2C19 (P33261 whole entry): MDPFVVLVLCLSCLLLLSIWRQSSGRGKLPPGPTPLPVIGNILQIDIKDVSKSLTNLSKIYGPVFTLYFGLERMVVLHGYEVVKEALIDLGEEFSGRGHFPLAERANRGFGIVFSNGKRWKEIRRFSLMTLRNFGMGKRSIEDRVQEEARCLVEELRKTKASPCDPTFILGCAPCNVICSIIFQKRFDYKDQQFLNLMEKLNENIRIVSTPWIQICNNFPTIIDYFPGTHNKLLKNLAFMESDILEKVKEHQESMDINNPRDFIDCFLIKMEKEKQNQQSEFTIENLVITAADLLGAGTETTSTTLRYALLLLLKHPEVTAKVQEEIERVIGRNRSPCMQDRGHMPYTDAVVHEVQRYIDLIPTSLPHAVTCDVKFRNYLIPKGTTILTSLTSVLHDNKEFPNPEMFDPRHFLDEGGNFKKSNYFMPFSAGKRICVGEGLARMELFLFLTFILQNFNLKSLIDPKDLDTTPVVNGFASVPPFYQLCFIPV
Sequence of Transient receptor potential cation channel subfamily A member 1 (Homo sapiens, UniProt O75762) (O75762 whole entry): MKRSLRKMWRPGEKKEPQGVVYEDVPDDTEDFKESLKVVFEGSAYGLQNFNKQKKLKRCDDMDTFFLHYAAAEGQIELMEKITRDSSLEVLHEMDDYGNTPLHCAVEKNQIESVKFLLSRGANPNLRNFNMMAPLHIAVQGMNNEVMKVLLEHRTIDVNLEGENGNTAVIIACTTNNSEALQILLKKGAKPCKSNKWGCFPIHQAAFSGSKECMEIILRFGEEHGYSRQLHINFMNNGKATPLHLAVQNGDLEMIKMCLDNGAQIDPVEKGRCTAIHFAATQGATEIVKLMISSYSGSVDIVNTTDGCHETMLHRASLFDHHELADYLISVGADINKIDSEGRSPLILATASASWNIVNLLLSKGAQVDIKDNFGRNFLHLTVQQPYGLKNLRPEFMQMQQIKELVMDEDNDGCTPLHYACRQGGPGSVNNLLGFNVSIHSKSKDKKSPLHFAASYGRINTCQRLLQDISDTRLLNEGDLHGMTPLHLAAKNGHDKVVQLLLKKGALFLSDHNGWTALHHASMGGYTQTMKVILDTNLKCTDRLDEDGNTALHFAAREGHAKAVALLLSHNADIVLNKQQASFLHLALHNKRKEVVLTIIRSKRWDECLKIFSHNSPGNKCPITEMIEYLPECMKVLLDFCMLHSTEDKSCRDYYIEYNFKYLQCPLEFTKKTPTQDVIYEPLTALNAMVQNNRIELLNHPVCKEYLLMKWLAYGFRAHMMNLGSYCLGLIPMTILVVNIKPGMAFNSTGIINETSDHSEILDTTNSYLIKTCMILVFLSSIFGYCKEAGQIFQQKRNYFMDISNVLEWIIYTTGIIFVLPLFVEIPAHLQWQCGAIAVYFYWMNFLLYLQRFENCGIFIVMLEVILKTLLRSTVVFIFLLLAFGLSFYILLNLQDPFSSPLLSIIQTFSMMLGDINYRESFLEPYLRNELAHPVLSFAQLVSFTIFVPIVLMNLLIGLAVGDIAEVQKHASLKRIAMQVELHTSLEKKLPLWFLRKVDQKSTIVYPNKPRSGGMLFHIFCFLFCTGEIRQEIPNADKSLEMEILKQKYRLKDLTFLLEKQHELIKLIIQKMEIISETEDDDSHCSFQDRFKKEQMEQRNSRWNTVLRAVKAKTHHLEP
Sequence of Cytochrome P450 3A4 (P08684 whole entry): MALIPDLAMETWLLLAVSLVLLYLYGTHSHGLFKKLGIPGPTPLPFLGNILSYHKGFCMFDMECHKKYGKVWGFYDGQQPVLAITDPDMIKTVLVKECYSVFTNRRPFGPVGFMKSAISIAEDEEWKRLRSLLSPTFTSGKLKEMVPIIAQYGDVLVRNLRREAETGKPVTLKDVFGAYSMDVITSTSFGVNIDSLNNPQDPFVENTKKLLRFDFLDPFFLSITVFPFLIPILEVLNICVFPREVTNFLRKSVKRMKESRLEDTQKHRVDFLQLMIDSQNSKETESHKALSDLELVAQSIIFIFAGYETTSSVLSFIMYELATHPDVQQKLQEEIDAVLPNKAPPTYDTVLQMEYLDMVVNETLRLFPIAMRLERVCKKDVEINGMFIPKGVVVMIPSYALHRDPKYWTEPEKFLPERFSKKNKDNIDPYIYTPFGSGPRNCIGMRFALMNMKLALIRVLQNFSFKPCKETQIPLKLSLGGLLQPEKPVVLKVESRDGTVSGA
Sequence of Cytochrome P450 2D6 (P10635 whole entry): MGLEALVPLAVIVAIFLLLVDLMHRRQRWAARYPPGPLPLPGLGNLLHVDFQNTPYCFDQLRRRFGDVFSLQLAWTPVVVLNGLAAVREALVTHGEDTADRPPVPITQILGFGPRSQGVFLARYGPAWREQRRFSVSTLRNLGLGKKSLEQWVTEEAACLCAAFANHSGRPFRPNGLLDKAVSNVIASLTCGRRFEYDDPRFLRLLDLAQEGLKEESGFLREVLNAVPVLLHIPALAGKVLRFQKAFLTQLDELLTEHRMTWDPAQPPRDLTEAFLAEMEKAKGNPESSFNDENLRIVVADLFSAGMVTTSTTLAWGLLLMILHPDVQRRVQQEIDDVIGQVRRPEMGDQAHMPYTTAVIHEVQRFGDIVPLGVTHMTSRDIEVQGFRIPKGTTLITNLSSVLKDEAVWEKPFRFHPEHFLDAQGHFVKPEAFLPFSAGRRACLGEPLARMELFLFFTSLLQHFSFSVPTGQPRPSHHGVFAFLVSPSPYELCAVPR
Sequence of Transient receptor potential cation channel subfamily V member 1 (Q8NER1 whole entry): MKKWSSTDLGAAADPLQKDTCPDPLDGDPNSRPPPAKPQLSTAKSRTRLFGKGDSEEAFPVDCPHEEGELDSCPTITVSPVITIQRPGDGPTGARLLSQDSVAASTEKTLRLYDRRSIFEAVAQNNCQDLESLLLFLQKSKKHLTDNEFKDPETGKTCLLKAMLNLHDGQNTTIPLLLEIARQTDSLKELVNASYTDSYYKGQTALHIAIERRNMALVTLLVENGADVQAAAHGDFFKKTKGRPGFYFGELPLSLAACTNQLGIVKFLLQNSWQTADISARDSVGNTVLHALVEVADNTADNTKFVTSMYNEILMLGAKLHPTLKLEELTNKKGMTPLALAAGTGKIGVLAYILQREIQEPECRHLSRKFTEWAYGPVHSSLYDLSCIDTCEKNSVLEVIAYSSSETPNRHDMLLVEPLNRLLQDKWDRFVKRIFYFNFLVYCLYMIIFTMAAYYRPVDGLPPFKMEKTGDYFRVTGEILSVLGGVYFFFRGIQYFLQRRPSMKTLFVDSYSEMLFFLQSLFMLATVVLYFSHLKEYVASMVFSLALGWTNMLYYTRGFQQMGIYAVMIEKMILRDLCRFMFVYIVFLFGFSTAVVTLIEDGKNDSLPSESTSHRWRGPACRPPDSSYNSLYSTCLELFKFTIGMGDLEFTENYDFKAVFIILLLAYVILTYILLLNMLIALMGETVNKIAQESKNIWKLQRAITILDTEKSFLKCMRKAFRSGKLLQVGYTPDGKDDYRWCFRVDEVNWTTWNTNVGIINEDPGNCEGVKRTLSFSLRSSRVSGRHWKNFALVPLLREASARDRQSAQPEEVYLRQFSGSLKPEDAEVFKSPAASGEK

Structure (SMILES): Fc1ccc(Oc2ccnc3[nH]ccc23)c(F)c1
IC50 [1]: > 32000 nM

Structure (SMILES): Cn1ccc2c(Oc3ccc(F)cc3F)ncnc21
IC50 [1]: > 32000 nM

Structure (SMILES): Fc1ccc(Oc2ccncn2)c(F)c1
IC50 [1]: > 32000 nM

Structure (SMILES): Clc1ccc(Oc2ncnc3[nH]ccc23)cc1
IC50 [1]: > 32000 nM

Structure (SMILES): Fc1ccc(Oc2ncnc3cc[nH]c23)c(F)c1
IC50 [1]: > 32000 nM

Structure (SMILES): Fc1cc(F)c(Oc2ncnc3[nH]ccc23)c(F)c1
IC50 [1]: > 32000 nM

Structure (SMILES): Fc1cccc(Oc2ncnc3[nH]ccc23)c1
IC50 [1]: > 32000 nM

Structure (SMILES): Fc1ccc(Oc2ncnc3occc23)c(F)c1
IC50 [1]: > 32000 nM

Structure (SMILES): Cc1ccccc1Oc1ncnc2[nH]ccc12
IC50 [1]: > 32000 nM

Structure (SMILES): Fc1ccc(Nc2ncnc3[nH]ccc23)cc1
IC50 [1]: > 32000 nM

Structure (SMILES): Fc1ccc(Cc2ncnc3[nH]ccc23)cc1
IC50 [1]: > 32000 nM

Structure (SMILES): Fc1ccc(Oc2ncnc3ccoc23)c(F)c1
IC50 [1]: > 32000 nM

Structure (SMILES): Fc1ccccc1Oc1ncnc2[nH]ccc12
IC50 [1]: > 32000 nM

Structure (SMILES): COc1ccc(Oc2ncnc3[nH]ccc23)cc1
IC50 [1]: > 32000 nM

Structure (SMILES): O=[N+]([O-])c1ccc(Oc2ncnc3[nH]ccc23)cc1
IC50 [1]: > 32000 nM

Structure (SMILES): Fc1ccc(Oc2ncnc3ccccc23)c(F)c1
IC50 [1]: > 32000 nM

Structure (SMILES): Cc1ccc(Oc2ncnc3[nH]ccc23)cc1
IC50 [1]: > 32000 nM

Next, values leading:

IC50 [1]: > 32000 nM
Structure (SMILES): Cc1ccc(Oc2ncnc3[nH]ccc23)c(C)c1

IC50 [1]: 630 nM
Structure (SMILES): COc1cc2ccnc(Oc3ccc(F)cc3F)c2cc1OC

IC50 [1]: > 32000 nM
Structure (SMILES): N#Cc1ccc(Oc2ncnc3[nH]ccc23)cc1

IC50 [1]: > 32000 nM
Structure (SMILES): COc1ccc2ncnc(Oc3ccc(F)cc3F)c2c1

IC50 [1]: 1100 nM
Structure (SMILES): Fc1ccc(Oc2cccc3[nH]ccc23)c(F)c1

IC50 [1]: 710 nM
Structure (SMILES): Fc1ccc(Oc2ncnc3[nH]ccc23)c(F)c1

IC50 [1]: 1200 nM
Structure (SMILES): COc1cc2ncnc(Oc3ccc(F)cc3F)c2cc1OC

IC50 [1]: 1300 nM
Structure (SMILES): COc1ccc2c(Oc3ccc(F)cc3F)nccc2c1

IC50 [1]: 3200 nM
Structure (SMILES): c1ccc(Oc2ncnc3[nH]ccc23)cc1

IC50 [1]: 630 nM
Structure (SMILES): Fc1ccc(Oc2ncnc3[nH]cc(Cl)c23)c(F)c1

IC50 [1]: 410 nM | IC50 [2]: 3000 nM | IC50 [3]: > 10 µM | solubility thermodynamic [4]: 33 µM (≈ 7.56 µg/mL) | remaining at 24 h [5]: 10% | remaining at 24 h [6]: 100% | remaining at 24 h [7]: 100% | microsomal CLint at 1 µM [8]: 24 µL/min/mg | Papp A→B at 10 µM [9]: 18 ×10⁻⁶ cm/s | IC50 [10]: > 20 µM | IC50 [11]: > 20 µM | IC50 [12]: > 20 µM | IC50 [13]: > 20 µM | IC50 [14]: > 20 µM | TDI [15]: 44%
Structure (SMILES): Fc1ccc(Oc2ncnc3[nH]ccc23)cc1

IC50 [1]: 3000 nM
Structure (SMILES): COc1ccc2c(Oc3ccc(F)cc3F)ncnc2c1

IC50 [1]: 320 nM | IC50 [2]: 1700 nM | IC50 [3]: > 10 µM | solubility thermodynamic [4]: 77 µM (≈ 19 µg/mL) | remaining at 24 h [5]: 100% | remaining at 24 h [6]: 100% | remaining at 24 h [7]: 100% | microsomal CLint at 1 µM [8]: 45 µL/min/mg | Papp A→B at 10 µM [9]: 33 ×10⁻⁶ cm/s | IC50 [10]: > 20 µM | IC50 [11]: > 20 µM | IC50 [12]: > 20 µM | IC50 [13]: > 20 µM | IC50 [14]: > 20 µM | TDI [15]: 42%
Structure (SMILES): Fc1ccc(Oc2nccc3[nH]ccc23)c(F)c1

IC50 [1]: 650 nM
Structure (SMILES): Cc1c[nH]c2ncnc(Oc3ccc(F)cc3F)c12

IC50 [1]: 330 nM | IC50 [2]: 1800 nM | solubility thermodynamic [4]: 8 µM (≈ 2.39 µg/mL) | microsomal CLint at 1 µM [8]: 110 µL/min/mg | Papp A→B at 10 µM [9]: 6 ×10⁻⁶ cm/s | IC50 [10]: 1.9 µM | IC50 [11]: 1.9 µM | IC50 [12]: 1.9 µM | IC50 [13]: 1.9 µM | IC50 [14]: 1.9 µM
Structure (SMILES): COc1cc2ccnc(Oc3ccc(F)cc3)c2cc1OC

IC50 [1]: 2200 nM
Structure (SMILES): Fc1ccc(Oc2nccc3occc23)c(F)c1

IC50 [1]: 310 nM | IC50 [2]: 1200 nM | solubility thermodynamic [4]: 24 µM (≈ 5.48 µg/mL) | microsomal CLint at 1 µM [8]: 74 µL/min/mg | Papp A→B at 10 µM [9]: 12 ×10⁻⁶ cm/s | IC50 [10]: > 20 µM | IC50 [11]: > 20 µM | IC50 [12]: > 20 µM | IC50 [13]: > 20 µM | IC50 [14]: > 20 µM | TDI [15]: 31%
Structure (SMILES): Fc1ccc(Oc2nccc3[nH]ccc23)cc1

IC50 [1]: 2000 nM
Structure (SMILES): Cc1[nH]c2ncnc(Oc3ccc(F)cc3F)c2c1C

IC50 [1]: 1200 nM
Structure (SMILES): Cc1cc2c(Oc3ccc(F)cc3F)ncnc2[nH]1

IC50 [1]: 2500 nM
Structure (SMILES): Fc1ccc(Oc2ncnc3[nH]cc(I)c23)c(F)c1

IC50 [1]: 3100 nM
Structure (SMILES): Fc1ccc(Oc2nccc3ccccc23)c(F)c1

IC50 [1]: 1600 nM
Structure (SMILES): CCc1c[nH]c2ncnc(Oc3ccc(F)cc3F)c12

IC50 [1]: 1100 nM
Structure (SMILES): Fc1ccc(Oc2nccc3ccoc23)c(F)c1

IC50 [1]: 2700 nM
Structure (SMILES): Fc1cccc(Oc2ncnc3[nH]ccc23)c1F

IC50 [1]: 3000 nM
Structure (SMILES): Fc1ccc(Oc2ncnc3[nH]ccc23)cc1F
